Reference: US20200237863A1, “Combination Therapy of Fractionated Radiation and SAPC-DOPS for the Treatment of Tumors” (University of Cincinnati, priority 2017, published 2020)
Residues, ends and D or L forms follow the SMILES beside them. *: point of attachment. Cbz = O=C(OCc1ccccc1)*; CH2F = FC*

Columns and labels:
[1] = test system: A2058, cfPac-1 and U87MG cell lines; assay: Cell viability (MTT) assay of serially irradiated cells treated with chemotherapeutic drugs; type: cell-based, human; settings: 5 Gy weekly for multiple weeks, drug 7 days after last irradiation, MTT 72 hr later
Procedure: Non serially-irradiated cells are designated R0. Media was changed immediately after the irradiation and the cells were split every 3-4 days. Treatments were given 4-7 days following the last 5 Gy irradiation, when the surface PS is still elevated. A) Timeline of the treatment regime. B) Surface PS was determined by Annexin V-FITC staining on Day 4 following the last 5 Gy irradiation. Rx; x=15 for A2058 and 10 for cfPac-1 and U87MG. * p<0.05, ** p<0.01 compared to R0. Shown are the mean and S.D. C-E) Cells were serially irradiated with 5 Gy. (top panel, A2058 cells; middle panel, cfPac-1 cells; bottom panel, U87MG cells) C) 7 days later they were exposed to the indicated doses of radiation and cell viability was determined by MTT assay was performed 72 hr. later. Shown is the % of live cells with 100% as the normalized control for each cell line, * p<0.05. ** p<0.01, compared to R0. D) 7 days after the last 5 Gy irradiation, cells were treated with different doses of gemcitabine (GEM) temozolomide (TMZ) or cisplatin and cell viability was determined by MTT assay was performed 72 hr. later. * p<0.05, ** p<0.01, compared to R0 at the same dose of drug. E.) 7 days following the last 5 Gy irradiation, cells were treated with the indicated doses of SapC-DOPS (1 SapC:7 DOPS, Mol:Mol) and cell viability was determined by MTT assay was performed 72 hr. later. […]

cfPac-1 cells = assay: Flow cytometric analysis of Annexin V-FITC binding (surface PS) after irradiation; type: cell-based, human; settings: cfPac-1 cells irradiated at 10 Gy, 10 μM Z-VAD-fmk, assessed 24 hr later
Procedure: Unless otherwise stated, cells at 60-80% confluency were irradiated and then, after the appropriate time, were trypsinized, resuspended in complete medium, spun down, and washed once with PBS then resuspended in annexin V staining buffer. Cells (1×10^5) were incubated at room temperature in the dark for 15 minutes in a final volume of 100 μl containing 10 μl Annexin V-FITC (Invitrogen, Carlsbad, Calif.) and 2 μg/ml propidium iodide (PI, BD-Pharmingen, Eugene, Oreg.). Annexin V-FITC binding was measured by flow cytometry after adding 400 μl of annexin V binding buffer, using a BD Fortessa. Data was analyzed with BD FACS Diva. For quantifying the annexin V-FITC signal from living cells, PI positive dead cells were gated out and the annexin V-FITC signal was obtained from PI negative forward scattered, cells.
Cells were grown to 60-80% confluence in 60 mm dishes then exposed to (^137Cs) irradiation with a GammaCell 40 Exactor (Nordion international) at doses of 0, 2, 6, 10 or 16 Gy. The media was changed and the cells were processed for surface PS determination at the indicated times. Mice were irradiated at 10 Gy with an Xstrahl D3100 superficial systems (at 100 kV) with 2 cm cone and projected 1 cm deep.

SMILES | sensitivity of serially irradiated cells to chemotherapeutic drugs (MTT cell viability) compared to R0 [1] | radiation-induced surface PS elevation (Annexin V binding) (cfPac-1 cells)
Nc1ccn([C@@H]2O[C@H](CO)[C@@H](O)C2(F)F)c(=O)n1 [gemcitabine] | more resistant | 
N.N.[Cl][Pt][Cl] [cisplatin] | more resistant | 
COC(=O)C[C@H](NC(=O)[C@H](C)NC(=O)[C@@H](NC(=O)OCc1ccccc1)C(C)C)C(=O)CF [Z-VAD fmk] (Cbz-Val-Ala-Asp(OMe)-CH2F) |  | completely eliminated the radiation-induced surface PS elevation
